Test results taken from paper PMC4949444 (Scientific Reports, 2016).

What was measured:
CB1 receptor = molecular target: T1, CB1 receptor (Homo sapiens, UniProt P21554); assay: CB1 receptor binding, [3H]CP55940 competition; conditions: data not shown; read-out: predicted Ki, CB1 receptor
T1 construct: purchased Perkin-Elmer Life and Analytical Sciences, Boston, MA; host or cells: HEK293 EBNA cells stably expressing the receptor
Method: CB1 and CB2 receptor binding affinities were determined by competition studies using [^3H]CP55940 as radioligand and commercial membrane preparations of HEK293 EBNA cells stably expressing the respective receptor type (Perkin-Elmer Life and Analytical Sciences, Boston, MA), following a procedure previously described.

[1] = system: QA-induced excitotoxicity in CD1 mice; assay: Intrastriatal QA-induced model of Huntington's disease; format: in vivo
Method: Figure 5 Protective action of VCE-003.2 administration in QA-induced excitotoxicity in vivo. (a) CD1 mice were subjected to quinolinic acid (QA) intrastriatal injection and RotaRod performance (fold change) was determined 2 days after lesion in vehicle- and VCE-003.2-treated mice (10 mg/kg). (b) Representative MRI images (Upper panel) and edema volume quantification (lower panel) 5 days after QA injection. Values are expressed as means ± SEM. Sham-Veh and Sham-VCE (n = 7 in each group); QA-Veh (n = 8); QA-VCE (n = 7). **p < 0.01, ***p < 0.001 vs. Vehicle. ^#p < 0.05 vs. QA.
Figure 6 Neuroprotection and attenuation of glial reactivity by VCE-003.2 in QA-induced excitotoxicity in vivo. (a) Representative immunofluorescence images of DARPP32, GFAP, Iba-1 are shown in sham and QA-injected mice treated with vehicle or VCE-003.2 (10 mg/kg). (b) Immunoreactivity of the different markers was quantified with Image J software and referred to the striatal surface analyzed. Values are expressed as means ± SEM. Sham-Veh and Sham-VCE (n = 3); QA-Veh (n = 8); QA-VCE (n = 6). **p < 0.01, ***p < 0.001 vs. QA. Bar size, 200 μm.
Mice were housed under standard conditions (12-h light/dark cycle) in groups with access to food and water ad libitum. All experiments were performed in accordance with European Union guideline and approved by the Animal Research Ethic Committee of Córdoba University (2014PI/017) (3NP model) and by the Animal Research Ethic Committee of Complutense University (CEA-UCM 73/2012) (QA model). Procedures were designed to minimize the number of animals used and their suffering. Excitotoxicity was induced by intrastriatal quinolinic acid (QA) administration (100 nmol in 1 μL PBS solution, unilaterally) as previously described[41] at the following coordinates: +0.6 posterior to bregma, +1.85 medio-lateral and -2.7 dorso-ventral to dura, in 12-week-old CD1 male mice (Harlan Ibérica, Barcelona, Spain). Pharmacological manipulation with VCE-003.2 (10 mg/kg body weight) was performed i.p. daily in 2% Tween 20 and 3% DMSO in saline buffer until sacrifice. Control animals received the corresponding vehicle injections. Motor function was assessed by RotaRod analysis conducted with acceleration from 4 to 40 rpm over a period of 570 s in an LE8200 device (Harvard Apparatus, Barcelona, Spain). […] 3NP-treated animals and their respective non-lesioned controls (injected with PBS) were used for pharmacological studies with VCE-003.2. Treatments consisted of 4 i.p. injections every 24 h with 20 mg/kg VCE-003.2 or vehicle (4% DMSO plus 6,2% Tween 20 in saline buffer), with the first and the last injections 30 min before the first and the last injections of 3NP, respectively. In some experiments, mice received a combination of VCE-003.2 and the PPARγ antagonist T0070907 (5 mg/kg) injected 15 minutes before VCE-003.2. In 3NP-lesioned mice, motor activity, hindlimb clasping, dystonia, and truncal dystonia were evaluated following previously described procedures. All behavioural tests were conducted prior to drug injections to avoid acute effects of the compounds under investigation and all animals were euthanized 12 h after the last injection of 3NP and their brains removed. The right hemispheres were used to dissect the striatum which was frozen in RNAlater (Sigma-Aldrich) and stored at −80 °C for biochemical analyses. […]

[2] = Cysteamine recovery assay (thiol trapping)
Method: cysteamine to form polar and not extractable adducts.
Determination of ROS: N2a cells were seeded at 25x 10^3 cells/ml in 96-well plates and incubated with 0.25 ȝM 5-(and-6 )-chloro meth yl-2ƍ,7ƍ-dichlorodihydrofluorescein diacetate acet yl ester (C M-H 2 DCFDA) for 20 minutes at 37°C. Then, the cells were treated with either VCE-003 or VCE-003.2 for 2 hours. Cells exposed to pro-oxidant tert-Butyl h ydroperoxide (TBHP) were used as positive control. H 2 DCFDA oxidation was detected using an Incuc yteTM Live-Cell Imaging S ystem (Hertfordshire, UK).
Nrf2 transcriptional assay: To study Nrf2 transcriptional activity N2a cells were seeded (105/ml) in 24-well plates and transientl y transfected with the plasmid NQO1-ARE-Luc using Roti©-Fect following the manufacturer’s instructions (Carl Roth, Karlsruhe, German y). After 24 hours, cells were incubated wi th the compounds at the concentrations indicated during 6 hours and the luciferase activit y was determined using an Autolumat LB 953 (EG&G Berthold, Bad Wildbad, Germany). Protein content was determined b y the Bradford method to calculate R LU/Pg of protein and the results were expressed as a fold induction over untreated cells.

T1 sequence (P21554 whole entry): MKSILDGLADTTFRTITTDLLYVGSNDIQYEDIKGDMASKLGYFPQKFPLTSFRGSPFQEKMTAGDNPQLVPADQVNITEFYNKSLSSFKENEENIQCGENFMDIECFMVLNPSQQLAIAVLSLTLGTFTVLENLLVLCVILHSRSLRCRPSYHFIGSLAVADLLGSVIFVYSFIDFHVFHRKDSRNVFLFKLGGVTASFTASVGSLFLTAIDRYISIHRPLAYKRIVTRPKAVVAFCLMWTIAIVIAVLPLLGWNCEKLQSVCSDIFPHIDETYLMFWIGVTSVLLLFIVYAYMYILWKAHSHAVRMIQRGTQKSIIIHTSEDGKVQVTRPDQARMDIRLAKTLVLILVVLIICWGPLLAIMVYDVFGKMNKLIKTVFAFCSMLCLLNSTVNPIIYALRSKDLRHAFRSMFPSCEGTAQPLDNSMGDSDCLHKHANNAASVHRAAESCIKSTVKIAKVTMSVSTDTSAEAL

For `CCCCCC1=C(NCC)C(=O)C(C/C=C(\C)CCC=C(C)C)=C(O)C1=O` [VCE-003.2], the Ki (CB1 receptor) was over 40 µM, the RotaRod performance ([1]; 2 days after QA injury, 10 mg/kg i.p. daily) was “reversed” and the “edema volume (MRI)” value ([1]; 5 days after QA injury, 10 mg/kg) was “edema volume was not affected”. For the same molecule, the “QA-induced DARPP32 neuronal loss” value ([1]; striatum, 10 mg/kg) was “prevented QA-induced DARRP32 neuronal loss”, the “microglial activation (Iba-1)” value ([1]; striatum, 10 mg/kg) was “prevented QA-induced DARRP32 neuronal loss and microglial activation” and the “reactive astrogliosis (GFAP)” value ([1]; striatum, 10 mg/kg) was “tendency to attenuate reactive astrogliosis”. The “recovery after treatment with cysteamine (thiol-trapping reactivity)” value [2] was “recovered unscathed”.
